Reference: patent US3998790A, “Phenoxy-hydroxypropylamines, their preparation, and method and pharmaceutical preparations for treating cardiovascular diseases” (priority 1974, dated 1976)
Read-outs that look alike come from different tables or passages of the source.

Assays:
[1] = in vivo; settings: mouse, ip
Procedure: (§1) Compounds prepared according to the examples were evaluated for intrinsic activity and blocking effect on heart rate and: peripheral vasodilator response to isoprenaline in the cat. The acute LD50 in mice was evaluated.

[2] = biological target: T1, β-receptors of the heart (Felis catus, UniProt Q9TST6); assay: β-blocking activity on heart rate (isoprenaline response) in reserpinized cats; format: in vivo, cat; settings: read-out: β-blockade Heart rate ED50
T1 construct: Intravenously injected isoprenaline increased the heart rate and reduced the perfusion pressure; from tissue; host or cells: heart of the intact anaesthetized, reserpinized, vagotomized cat (in vivo)
T1 sequence (Q9TST6 whole entry, the tested form may be a part): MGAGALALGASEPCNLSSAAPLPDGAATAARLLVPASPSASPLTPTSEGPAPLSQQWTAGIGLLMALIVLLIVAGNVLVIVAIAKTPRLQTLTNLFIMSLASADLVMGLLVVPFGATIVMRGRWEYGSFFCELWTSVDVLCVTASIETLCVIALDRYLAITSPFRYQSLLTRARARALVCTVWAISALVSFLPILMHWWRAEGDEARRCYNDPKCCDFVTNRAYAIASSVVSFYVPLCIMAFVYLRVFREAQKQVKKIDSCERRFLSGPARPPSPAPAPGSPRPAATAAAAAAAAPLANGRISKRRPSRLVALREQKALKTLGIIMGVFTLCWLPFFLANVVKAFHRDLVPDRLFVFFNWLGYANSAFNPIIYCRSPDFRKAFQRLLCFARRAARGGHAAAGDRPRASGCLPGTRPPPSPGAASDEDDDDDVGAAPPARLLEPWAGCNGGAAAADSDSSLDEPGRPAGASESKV
Procedure: (§2) The acute LD50 in mice was evaluated. Alprenolol was used as a reference substance.
(§3) Cats weighing between 1.8 and 2.8 kg were anaesthetized with 30 mg/kg pentobarbital sodium, intraperitoneally. The cats had been pretreated with reserpine, 5 mg/kg intramuscular, about 18 hours before the experiment. Bilateral vagotomy was performed before the start of the experiment.
(§4) The heart rate was recorded on an Offner cardiotachometer triggered by the EKG-complex. Mean arterial blood pressure was recorded from a carotid artery. The peripheral resistance was measured in one of the legs of the cat in the following way: The femoral artery was opened in the inguinal region and the leg was perfused by blood delivered through a sigma motor pump at constant rate. The flow resistance (the pressure) was recorded via a pressure transudcer connected to the catheter distally to the pump. The paw was excluded from the circulation by a tight ligature Intravenously injected isoprenaline increased the heart rate and reduced the perfusion pressure. An isoprenaline dose giving 70-80% of the maximal chronotropic response was determined. This dose (usually 0.1 μg/kg) was then repeated with 20 minute intervals. Ten minutes before each isoprenaline injection, the tested substances were administered intravenously for two minutes, starting with a dose of 0.01 mg/kg and increasing each subsequent dose fourfold. The intrinsic effects of the test substances were determined. The dose producing 50% blockade of the isoprenaline responses was evaluated from the plotted log dose-percent blockade diagrams.

[3] = biological target: T2, peripheral vascular β-receptors (Felis catus, UniProt Q9TST5); assay: β-blocking activity on peripheral vascular resistance (vasodilator response to isoprenaline) in reserpinized cats; format: in vivo, cat; settings: read-out: β-blockade peripheral vascular resistance ED50
T2 construct: from tissue; host or cells: vascular bed of the perfused leg of the anaesthetized, reserpinized cat, paw excluded (in vivo)
T2 sequence (Q9TST5 whole entry, the tested form may be a part): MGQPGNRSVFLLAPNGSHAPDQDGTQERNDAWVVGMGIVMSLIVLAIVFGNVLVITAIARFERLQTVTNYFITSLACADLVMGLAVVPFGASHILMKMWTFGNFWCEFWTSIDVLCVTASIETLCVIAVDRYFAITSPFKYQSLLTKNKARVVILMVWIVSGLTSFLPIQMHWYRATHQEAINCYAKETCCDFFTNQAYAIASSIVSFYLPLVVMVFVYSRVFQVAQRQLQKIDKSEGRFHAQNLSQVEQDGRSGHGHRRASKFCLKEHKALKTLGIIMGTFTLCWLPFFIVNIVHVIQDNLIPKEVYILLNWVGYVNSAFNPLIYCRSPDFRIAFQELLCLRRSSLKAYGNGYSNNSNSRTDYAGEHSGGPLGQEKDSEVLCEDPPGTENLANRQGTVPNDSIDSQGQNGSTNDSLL
Procedure: as §2, §3, §4

[4] = tested on: heart rate; assay: intrinsic stimulating activity on heart rate in reserpinized cats; format: in vivo, cat; settings: Felis catus, read-out: Intrinsic activity % of maximal isoprenaline heart rate
Procedure: as §1, §3
as §4, with “The paw was excluded from the circulation by a tight ligature Intravenously injected isoprenaline increased the heart rate and reduced the perfusion pressure.” left out, “This dose (usually 0.1 μg/kg) was then repeated with 20 minute intervals.” left out

[5] = reserpinized cat, intravenous, dose producing 50% blockade of isoprenaline response
[6] = reserpinized cat, pentobarbital anaesthesia, intravenous

| Structure (SMILES) | LD50 [1] [mg/kg] | ED50 [2, 5] [mg/kg] | ED50 [3, 5] [mg/kg] | Emax ([4]; iv) [%] | ED50 ([2]; cat, iv) [mg/kg] | ED50 ([3]; cat, iv) [mg/kg] | Emax [4, 6] [%] |
| --- | --- | --- | --- | --- | --- | --- | --- |
| CCOC(=O)NCCc1ccc(OCC(O)CNC(C)C)cc1 (centres unmarked) | 200 | 0.3 | 25 | 0 | – | – | – |
| COC(=O)NCCc1ccc(OCC(O)CNC(C)C)cc1 (centres unmarked) [(no label)] | 125 | 0.4 | 19 | 0 | – | – | – |
| COCCc1ccc(OCC(O)CNC(C)C)cc1 (stereo not drawn) [Ex. I, 1-isopropylamino-3-[p-(β-methoxyethyl)-phenoxy]-propanol-2] | 200 | – | – | – | 0.4 | 3 | 0 |
| CCOCCc1ccc(OCC(O)CNC(C)C)cc1 (stereo not drawn) [Ex. II, 1-isopropylamino-3-[p-(β-ethoxyethyl)-phenoxy]-propanol-2] | 150 | 0.3 | 4 | – | – | – | 0 |
| CCOCc1ccc(OCC(O)CNC(C)C)cc1 (centres unmarked) [Ex. III, 1-isopropylamino-3-(p-ethoxymethyl-phenoxy)-propanol-2] | 175 | 0.4 | 6 | – | – | – | 0 |
| C=CCc1ccccc1OCC(O)CNC(C)C (centres unmarked) [alprenolol, reference compound] | – | – | – | – | 0.1 | 0.05 | 20 |
